In patent publication US10111936B2, “Metal-glycoprotein complexes and photodynamic therapy of immune privileged sites with same” (Theralase Technologies, Inc., priority 2015, dated 2018):

Experiments:
AY27 cancer cell line = assay: In vitro PDT in hypoxia; type: cell-based; conditions: 635 nm, 90 J cm−2, hypoxic 0.5-0.1% O2, 0.4 mg/mL human transferrin
Experimental: The cells were incubated for 90 minutes in premix of the photosensitizer and 0.4 mg/mL human transferrin (or without transferrin, as a control group) as described above for in vitro PDT. Dark toxicity and PDT effect of the photosensitizers on AY27 cell line under 635 nm (90 J cm−2) irradiation in the absence and presence of transferrin in normoxic (FIGS. 17A, 17B) and hypoxic (0.5-0.1% O2, FIGS. 17C, 17D) conditions. The cells were incubated with the photosensitizer and transferrin for 90 minutes. After that, the cells were irradiated and the medium was replaced with a fresh one (without photosensitizer and transferrin). On the next day (21 hours post-irradiation), viability of the cells was measured using Presto Blue viability assay, and percent of cell kill was calculated. The PDT effect shown is a result of subtraction of “photosensitizer alone” and “light alone” cell kill from the total PDT cell kill.
The cells were incubated for 90 minutes in premix of the photosensitizer and 0.4 mg/mL human transferrin (or without transferrin, as a control group) as described above for in vitro PDT. […] On the next day (21 hours post-irradiation), viability of the cells was measured using Presto Blue viability assay, and percent of cell kill was calculated. […]

[1] = Singlet oxygen production, cell free (SOG indicator fluorescence); type: physicochemical; set-up: unit not given here
Experimental: The photosensitizers were diluted in phosphate buffer (pH=7.0)+100 mM NaCl or incomplete DMEM. The irradiation was performed in 96-well plates (100 uL working volume). Generation of singlet oxygen was measured by fluorescence signal of SOG indicator, generation of hydroxyl radical by fluorescence signal of HPF indicator. The signal presented is a result of subtraction of the signal in the presence of scavengers (NaN3 for singlet oxygen and DMTU for hydroxyl radical) from the total fluorescence signal.

normal human fibroblasts = assay: Uptake by normal cells by ICP-MS; type: cell-based; conditions: 200 uM, 0.8 mg/mL transferrin, 4 hours, much lesser extent than cancer cells
Experimental: Cell culture (normal human fibroblasts) was exposed to 200 uM of the photosensitizer without additional transferrin and in the presence of 0.8 mg/mL transferrin for 4 hours. The incubation mix was washed away and the cells were collected, counted, and lysed. Lysed solution was dissolved in nitric acid and appropriate metals concentration was measured using inductively coupled plasma mass spectrometry. The metals concentration is directly proportional to the concentration of the photosensitizer.

Transferrin = Transferrin (Homo sapiens, UniProt P02787); assay: Binding to transferrin by absorption spectra; conditions: transferrin 0.2 mg/mL; photosensitizer 10 uM
Transferrin, sequence (P02787 20-698): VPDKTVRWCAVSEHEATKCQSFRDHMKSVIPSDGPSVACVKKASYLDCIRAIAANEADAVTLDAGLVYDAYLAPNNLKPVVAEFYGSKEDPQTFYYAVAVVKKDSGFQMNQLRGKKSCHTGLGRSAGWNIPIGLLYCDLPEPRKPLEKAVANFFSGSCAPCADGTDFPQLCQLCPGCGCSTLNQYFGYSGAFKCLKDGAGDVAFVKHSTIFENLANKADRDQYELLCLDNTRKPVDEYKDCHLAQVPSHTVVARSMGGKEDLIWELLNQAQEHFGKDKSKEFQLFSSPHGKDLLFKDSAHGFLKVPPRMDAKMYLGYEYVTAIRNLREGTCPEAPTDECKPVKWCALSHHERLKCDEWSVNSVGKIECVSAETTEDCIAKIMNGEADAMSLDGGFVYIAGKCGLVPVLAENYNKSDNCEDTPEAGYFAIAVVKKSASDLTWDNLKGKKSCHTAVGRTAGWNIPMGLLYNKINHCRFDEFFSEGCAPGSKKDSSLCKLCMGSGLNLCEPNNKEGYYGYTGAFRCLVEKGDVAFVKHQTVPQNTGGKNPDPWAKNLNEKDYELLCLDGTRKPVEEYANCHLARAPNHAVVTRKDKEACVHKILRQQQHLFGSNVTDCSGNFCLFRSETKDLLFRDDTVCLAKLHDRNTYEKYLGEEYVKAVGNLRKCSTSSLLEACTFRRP
Experimental: Transferrin (0.2 mg/mL) was incubated with the photosensitizers (10 uM) and absorption spectra were obtained.
Binding of Ruthenium and Ruthenium-Rhodium-based photosensitizers to transferrin is characterized by a characteristic signature: an increased peak of absorption at 280 nm and a new peak in 400-500 nm range.

[Os+2].c1ccc2cc3nc4c5cccnc5c5ncccc5c4nc3cc2c1.c1ccc2nc(-c3ccc4ccccc4n3)ccc2c1.c1ccc2nc(-c3ccc4ccccc4n3)ccc2c1 [TLDOsH2dppn]
PDT effect under hypoxic conditions, effect of transferrin (AY27 cancer cell line): ensured PDT effect
singlet oxygen production ([1]; 530 nm & 1092 J cm−2, incomplete DMEM, 0.8 mg/mL transferrin): 35127
singlet oxygen production ([1]; 530 nm & 1092 J cm−2, incomplete DMEM, 1.6 mg/mL transferrin): 43927
singlet oxygen production ([1]; 530 nm & 1092 J cm−2, incomplete DMEM, 3.2 mg/mL transferrin): 61734
singlet oxygen production ([1]; 530 nm & 1092 J cm−2, incomplete DMEM, no transferrin): 36391
singlet oxygen production ([1]; 530 nm & 1092 J cm−2, phosphate buffer, 0.8 mg/mL transferrin): 42816
singlet oxygen production ([1]; 530 nm & 1092 J cm−2, phosphate buffer, 1.6 mg/mL transferrin): 56372
singlet oxygen production ([1]; 530 nm & 1092 J cm−2, phosphate buffer, 3.2 mg/mL transferrin): 77219
singlet oxygen production ([1]; 530 nm & 1092 J cm−2, phosphate buffer, no transferrin): 25937
singlet oxygen production ([1]; 635 nm & 649 J cm−2, incomplete DMEM, 0.8 mg/mL transferrin): 53931
singlet oxygen production ([1]; 635 nm & 649 J cm−2, incomplete DMEM, 1.6 mg/mL transferrin): 75293
singlet oxygen production ([1]; 635 nm & 649 J cm−2, incomplete DMEM, 3.2 mg/mL transferrin): 81807
singlet oxygen production ([1]; 635 nm & 649 J cm−2, incomplete DMEM, no transferrin): 15109
singlet oxygen production ([1]; 635 nm & 649 J cm−2, phosphate buffer, 0.8 mg/mL transferrin): 42837
singlet oxygen production ([1]; 635 nm & 649 J cm−2, phosphate buffer, 1.6 mg/mL transferrin): 51832
singlet oxygen production ([1]; 635 nm & 649 J cm−2, phosphate buffer, 3.2 mg/mL transferrin): 72938
singlet oxygen production ([1]; 635 nm & 649 J cm−2, phosphate buffer, no transferrin): 10392
singlet oxygen production ([1]; 808 nm & 4000 J cm−2, incomplete DMEM, 0.8 mg/mL transferrin): 25384
singlet oxygen production ([1]; 808 nm & 4000 J cm−2, incomplete DMEM, 1.6 mg/mL transferrin): 55631
singlet oxygen production ([1]; 808 nm & 4000 J cm−2, incomplete DMEM, 3.2 mg/mL transferrin): 62804
singlet oxygen production ([1]; 808 nm & 4000 J cm−2, incomplete DMEM, no transferrin): 11907
singlet oxygen production ([1]; 808 nm & 4000 J cm−2, phosphate buffer, 0.8 mg/mL transferrin): 10000
singlet oxygen production ([1]; 808 nm & 4000 J cm−2, phosphate buffer, 1.6 mg/mL transferrin): 30000
singlet oxygen production ([1]; 808 nm & 4000 J cm−2, phosphate buffer, 3.2 mg/mL transferrin): 40000
singlet oxygen production ([1]; 808 nm & 4000 J cm−2, phosphate buffer, no transferrin): 8000
cellular accumulation in normal cells, effect of transferrin (normal human fibroblasts): higher in the presence of transferrin
transferrin binding (absorption spectra) (Transferrin): transferrin binding
